Experimental data from US10842806B2, “Methods for treating ocular inflammatory disorders” (Massachusetts Eye and Ear Infirmary, priority 2011, dated 2020).

Experiments:
[1] = system: experimental autoimmune uveitis (EAU); assay: Clinical scoring of EAU by funduscopic examination; type: in vivo, C57BL/6 (WT) mice
[2] = system: endotoxin-induced uveitis (EIU); assay: Clinical scoring of EIU by slit lamp examination; type: in vivo, Lewis rats; details: for EIU clinical inflammation score: 24 h after LPS, scale 0-4, mean±SD, PBS-treated EIU 3.6±0.7; for EIU clinical score: no suppression vs controls
Description: Endotoxin-induced uveitis (EIU) is a rodent model of human uveitis, induced by a single systemic injection of endotoxin or lipopolysaccharide (LPS) (Rosenbaum et al., (1980) NATURE 286:611-613). Injected animals develop acute bilateral anterior inflammation, characterized by a breakdown of the blood-ocular barrier and accumulation of inflammatory cells. EIU has been used to investigate the pathogenesis of uveitis and to evaluate the therapeutic effect of several drugs (Herbort et al. (1989) EXP. EYE RES. 48:693-705; Avunduk et al. (2004) EXP. EYE RES. 79:357-365; Chang et al. (2006) BR. J. OPHTHALMOL. 90:103-108; Wakefield et al. (2010) BR. J. OPHTHALMOL. 94:271-274). The effect of AICAR on ocular inflammation associated with uveitis was assessed using the EIU rat model. Male Lewis rats ranging from 6-8 weeks old (Charles River, Wilmington, Mass.) were used for these studies. To study the effects of AICAR pretreatment, AICAR and PBS (for placebo treatment) were delivered via intraperitoneal injection of AICAR (50 mg/kg or 100 mg/kg body weight; Sigma) diluted in 150 μl PBS or equal volume of PBS at 6 hours before and at the same time as LPS injection. Four experimental groups of rats were compared: (1) Normal: no treatment (2) AICAR: normal rats treated with AICAR 6 hours before examination; (3) LPS: EIU rats treated with PBS; (4) LPS+AICAR: EIU rats treated with AICAR. Two additional groups of rats were used to study the effects of AICAR (50 mg/kg) given either at the same time as LPS injection or at 6 hours after LPS injection. Clinical scoring of EIU was performed as previously described (Pouvreau et al. (1998) J. NEUROIMMUNOL. 86:171-181). Slit lamp examination was conducted 24 hours after LPS injection in a masked fashion. The severity of EIU was graded from 0 to 4 by a masked investigator, using the following scale: 0=no inflammatory reaction; 1=discrete inflammation of the iris and conjunctival vessels; 2=dilation of the iris and conjunctival vessels with moderate flare in the anterior chamber; 3=hyperemia in iris associated with Tyndall effect in the anterior chamber; and 4=same clinical signs as 3 plus the presence of fibrin or synechiae.

retinal vessels = assay: Protein leakage from retinal vessels (biotinylated BSA assay); type: in vivo, Lewis rats; details: AICAR-pretreated EIU rats, 24 h after LPS; n=8; EIU rats 30.5±21.2
Description: Male Lewis rats ranging from 6-8 weeks old (Charles River, Wilmington, Mass.) were used for these studies. To study the effects of AICAR pretreatment, AICAR and PBS (for placebo treatment) were delivered via intraperitoneal injection of AICAR (50 mg/kg or 100 mg/kg body weight; Sigma) diluted in 150 μl PBS or equal volume of PBS at 6 hours before and at the same time as LPS injection. Four experimental groups of rats were compared: (1) Normal: no treatment (2) AICAR: normal rats treated with AICAR 6 hours before examination; (3) LPS: EIU rats treated with PBS; (4) LPS+AICAR: EIU rats treated with AICAR. Two additional groups of rats were used to study the effects of AICAR (50 mg/kg) given either at the same time as LPS injection or at 6 hours after LPS injection. Protein leakage from retinal vessels was assessed with a biotinylated bovine serum albumin (bBSA) assay as previously described (Trichonas et al. (2010) INVEST. OPHTHALMOL. VIS. SCI. 51:1677-1682). At 23 hours after LPS injection, rats were anesthetized and 0.14 ml of 43.7 mg/ml bBSA (Santa-Cruz Biotechnology, Santa Cruz, Calif.) was injected through the femoral vein. After one hour, the chest cavities of rats were opened, and the rats were perfused with lactated Ringer's solution via the left ventricle for 6 minutes. […] Supernatant was collected, and bBSA concentration was measured by enzyme-linked immunosorbent assay (ELISA). […]

[3] = system: experimental autoimmune uveitis (EAU); assay: Histological scoring of EAU (H&E sections); type: in vivo, C57BL/6 (WT) mice
WT BMDCs = assay: LPS-stimulated BMDC maturation (FACS) and cytokine production (ELISA); type: cell-based, mice
Description: BMDCs were generated as previously described (Wang et al. (2005) IMMUNOL. LETT. 98:123-130). Briefly, bone marrow was flushed from the femurs and tibias of naive mice (6 to 8-week-old WT or AMPKα1 KO mice). The red blood cells were lysed using Red Blood Cell Lysing Buffer (Sigma). Approximately 2×10^6 cells were cultured in complete medium (RPMI 1640 medium containing 10% FBS, […], 10 mM HEPES [pH 7.4], 2 mM glutamine, 100 U/ml penicillin, and […]) including 10 ng/ml GM-CSF (Pepro Tech, London, England). Fresh media was added to the cells on day 4 of culture, and nonadherent cells and loosely adherent cells were collected as immature DCs on day 7. Immature DCs were stimulated with 100 ng/ml LPS (Salmonella typhimurium; Sigma) for 24 hours to obtain mature DCs. In some experiments, AICAR was added to the culture. […] After LPS stimulation for 24 hours, supernatant of the BMDC culture was collected and IL-6, TNF-α and IL12/23 p40 concentrations were measured (R&D system).

[4] = 100 ng/ml LPS 24 hours with AICAR, dose-dependent manner
[5] = LPS stimulation for 24 hours with AICAR, ELISA

SMILES: NC(=O)c1ncn([C@@H]2O[C@H](CO)[C@@H](O)[C@H]2O)c1N [AICAR, 5-aminoimidazole-4-carboxamide-1-β-d-ribofuranoside]
- EAU mean clinical score ([1]; AICAR 200 mg/kg i.p. daily day 0 to 21, day 21, scale 0-4, n=15, control 2.6±0.70): 1.32±0.95
- Clinical inflammation on fundus examination ([1]; AICAR 100 or 200 mg/kg daily, dose-dependent manner): suppressed
- EAU mean clinical score, effector phase treatment ([1]; AICAR administered from day 8 to 21 after immunization, n=8, controls 2.44±0.56): 1.50±0.86
- EIU clinical inflammation score ([2]; AICAR 50 mg/kg i.p. 6 h before and at same time as LPS, n=15): 2.2±0.75
- EIU clinical inflammation score ([2]; AICAR 100 mg/kg i.p. 6 h before and at same time as LPS, n=12): 2.7±1.4
- Fibrin formation and posterior synechiae ([2]; AICAR-pretreated EIU animals vs PBS-treated EIU rats): rarely seen
- Inflammation in normal rats that received AICAR alone ([2]; age-matched normal rats, no LPS, n=6): No inflammation was detected
- EIU clinical score ([2]; single dose AICAR 50 mg/kg at 6 hours after LPS injection, n=6): 3.9±0.2
- EIU clinical score ([2]; single dose AICAR 50 mg/kg at the time of LPS injection, n=6): 3.7±0.5
- Protein leakage from retinal vessels (bBSA) (retinal vessels): 11.2±7.2 ng/mg total retinal protein
- EAU mean pathologic score ([3]; AICAR 200 mg/kg i.p. daily day 0 to 21, day 21, scale 0-4, control 1.65±0.68): 0.53±0.73
- EAU mean pathologic score, effector phase treatment ([3]; AICAR administered from day 8 to 21 after immunization, n=8, controls 1.03±0.75): 0.13±0.27
- CD40 expression on BMDCs (WT BMDCs; [4]): significantly suppressed
- CD80 expression on BMDCs (WT BMDCs; [4]): significantly suppressed
- CD86 expression on BMDCs (WT BMDCs; [4]): significantly suppressed
- I-A^b expression on BMDCs (WT BMDCs; [4]): significantly suppressed
- IL-6 production in BMDCs (WT BMDCs; [5]): significantly suppressed
- IL-12/23 p40 production in BMDCs (WT BMDCs; [5]): significantly suppressed
- TNF-α production in BMDCs (WT BMDCs; [5]): significantly suppressed
